US11046699B2, “Pyrazolo-pyrimidin-amino-cycloalkyl compounds and their therapeutic uses” (RAPT THERAPEUTICS, INC., priority 2018, dated 2021)

target: GCN2 (Homo sapiens, UniProt Q9P2K8); experiment: GCN2 enzymatic endpoint assay: phosphorylation of GFP-eIF2α measured by TR-FRET (Lanthascreen); type: biochemical; settings: GCN2 biochemical IC50; 4 nM GCN2, 2 μM ATP, 80 nM GFP-eIF2α, 90 min RT; read-out: GCN2 activity
Method in brief: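 Phosphorylated eIF2α read by Lanthascreen TR-FRET (acceptor 520 nm over donor 495 nm) after EDTA stop. The reaction ran 90 min at room temperature on 80 nM GFP-eIF2α with 2 μM ATP.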

GCN2, sequence (Q9P2K8 whole entry): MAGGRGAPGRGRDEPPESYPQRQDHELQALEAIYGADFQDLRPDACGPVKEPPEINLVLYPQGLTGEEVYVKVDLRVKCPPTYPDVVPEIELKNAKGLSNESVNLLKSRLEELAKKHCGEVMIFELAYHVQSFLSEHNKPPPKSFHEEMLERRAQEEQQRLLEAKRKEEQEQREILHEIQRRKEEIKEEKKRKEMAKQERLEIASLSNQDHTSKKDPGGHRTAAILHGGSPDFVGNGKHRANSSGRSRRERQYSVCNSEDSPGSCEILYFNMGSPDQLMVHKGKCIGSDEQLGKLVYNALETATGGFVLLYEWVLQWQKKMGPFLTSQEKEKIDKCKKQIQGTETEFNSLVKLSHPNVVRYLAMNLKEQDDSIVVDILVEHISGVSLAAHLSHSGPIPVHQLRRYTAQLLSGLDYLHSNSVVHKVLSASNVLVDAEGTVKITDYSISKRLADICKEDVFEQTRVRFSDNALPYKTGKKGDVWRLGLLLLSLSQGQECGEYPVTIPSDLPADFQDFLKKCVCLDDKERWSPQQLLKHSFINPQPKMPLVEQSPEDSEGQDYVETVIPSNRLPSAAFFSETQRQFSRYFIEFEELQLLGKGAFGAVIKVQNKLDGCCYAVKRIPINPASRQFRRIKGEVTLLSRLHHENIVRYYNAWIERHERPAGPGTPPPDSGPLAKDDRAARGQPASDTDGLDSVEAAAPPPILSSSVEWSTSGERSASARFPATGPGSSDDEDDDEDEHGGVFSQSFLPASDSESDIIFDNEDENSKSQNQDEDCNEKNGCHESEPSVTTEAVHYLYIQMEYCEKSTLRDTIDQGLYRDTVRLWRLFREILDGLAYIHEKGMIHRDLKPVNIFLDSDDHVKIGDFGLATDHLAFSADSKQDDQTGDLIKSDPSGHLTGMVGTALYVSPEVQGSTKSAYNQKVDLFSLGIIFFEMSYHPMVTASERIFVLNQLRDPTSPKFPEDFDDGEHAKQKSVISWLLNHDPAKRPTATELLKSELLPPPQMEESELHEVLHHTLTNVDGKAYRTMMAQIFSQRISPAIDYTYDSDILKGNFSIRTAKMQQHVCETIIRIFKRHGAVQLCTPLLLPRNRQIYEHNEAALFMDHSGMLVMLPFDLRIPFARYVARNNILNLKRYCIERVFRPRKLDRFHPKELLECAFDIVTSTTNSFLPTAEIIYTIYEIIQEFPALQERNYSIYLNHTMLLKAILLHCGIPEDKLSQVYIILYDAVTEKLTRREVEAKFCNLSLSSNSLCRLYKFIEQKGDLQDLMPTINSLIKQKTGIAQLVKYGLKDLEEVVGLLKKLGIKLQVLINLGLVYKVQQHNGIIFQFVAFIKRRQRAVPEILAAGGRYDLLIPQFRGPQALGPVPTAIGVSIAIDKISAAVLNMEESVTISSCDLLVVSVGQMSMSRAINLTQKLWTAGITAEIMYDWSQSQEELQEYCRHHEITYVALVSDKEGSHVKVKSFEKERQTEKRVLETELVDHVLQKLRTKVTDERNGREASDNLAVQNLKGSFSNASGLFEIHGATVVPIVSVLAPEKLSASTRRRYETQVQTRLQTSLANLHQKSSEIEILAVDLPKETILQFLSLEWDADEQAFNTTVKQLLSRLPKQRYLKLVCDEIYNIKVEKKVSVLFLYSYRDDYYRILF

IC50 [nM]	SMILES
< 25	CNC(=O)[C@]1(C)CC[C@@H](Nc2ncc3c(Br)nn(-c4ccc(-c5nnc(C)s5)cc4)c3n2)C1 [Example 38, (1R,3R)-3-((3-bromo-1-(4-(5-methyl-1,3,4-thiadiazol-2-yl)phenyl)-1H-pyrazolo[3,4-d]pyrimidin-6-yl)amino)-N,1-dimethylcyclopentane-1-carboxamide]
25 to 200	CNC(=O)[C@@H]1CC[C@@H](Nc2ncc3c(Br)nn(-c4ccc(-c5ncco5)cc4)c3n2)C1 [Example 10, (1R,3R)-3-((3-bromo-1-(4-(oxazol-2-yl)phenyl)-1H-pyrazolo[3,4-d]pyrimidin-6-yl)amino)-N-methylcyclopentane-1-carboxamide]
25 to 200	CNS(=O)(=O)[C@@H]1CC[C@@H](Nc2ncc3c(Br)nn(-c4ccc5ncccc5c4)c3n2)C1 (single isomer, unassigned) [Example 16]

same assay, conditions: tested as described in Example 77; compound and/or hydrochloride, dihydrochloride or trifluoroacetic acid salt; read-out: IC 50 Activity

IC50 [nM]	SMILES
25 to 200	CNC(=O)[C@]1(C)CC[C@@H](Nc2ncc3c(Br)nn(-c4cc(CCO)c5nc(C)ccc5c4)c3n2)C1 [(1R,3R)-3-[[3-bromo-1-[8-(2-hydroxy-ethyl)-2-methyl-6-quinolyl]pyrazolo[3,4-d]pyrimidin-6-yl]amino]-N,1-dimethyl-cyclopentanecarboxamide]
25 to 200	CNC(=O)[C@]1(C)CC[C@@H](Nc2ncc3c(Br)nn(-c4cc(Cl)cc(C#N)c4)c3n2)C1 [(1R,3R)-3-[[3-bromo-1-(3-chloro-5-cyano-phenyl)pyrazolo[3,4-d]pyrimidin-6-yl]amino]-N,1-dimethyl-cyclopentanecarboxamide]
25 to 200	CNC(=O)[C@@]1(C)CC[C@@H](Nc2ncc3c(I)nn(-c4ccc(-c5nnc(C)o5)cc4)c3n2)C1 [(1S,3R)-3-[[3-iodo-1-[4-(5-methyl-1,3,4-oxadiazol-2-yl)phenyl]pyrazolo[3,4-d]pyrimidin-6-yl]amino]-N,1-dimethyl-cyclopentanecarboxamide]
25 to 200	CNC(=O)[C@]1(C)CC[C@@H](Nc2ncc3c(Br)nn(-c4ccc(-c5cncs5)cc4)c3n2)C1 [(1R,3R)-3-[[3-bromo-1-(4-thiazol-5-ylphenyl)pyrazolo[3,4-d]pyrimidin-6-yl]amino]-N,1-dimethyl-cyclopentane-carboxamide]
25 to 200	CNC(=O)[C@]1(C)CC[C@@H](Nc2ncc3c(Br)nn(-c4ccc(-c5nnc(COC)s5)cc4)c3n2)C1 [(1R,3R)-3-[[3-bromo-1-[4-[5-(methoxy-methyl)-1,3,4-thiadiazol-2-yl]phenyl]pyrazolo[3,4-d]pyrimidin-6-yl]amino]-N,1-dimethyl-cyclopentanecarboxamide]
25 to 200	CNC(=O)[C@]1(C)CC[C@@H](Nc2ncc3c(Br)nn(-c4cc(C#N)cc(C5CNC5)c4)c3n2)C1 [(1R,3R)-3-[[1-[3-(azetidin-3-yl)-5-cyano-phenyl]-3-bromo-pyrazolo[3,4-d]pyrimidin-6-yl]amino]-N,1-dimethyl-cyclopentane-carboxamide]
25 to 200	CNC(=O)[C@]1(C)CC[C@@H](Nc2ncc3c(Br)nn(-c4cc(C(C)O)c5nccnc5c4)c3n2)C1 (stereo partly drawn) [(1R,3R)-3-[[3-bromo-1-[8-(1-hydroxy-ethyl)quinoxalin-6-yl]pyrazolo[3,4-d]pyrimidin-6-yl]amino]-N,1-dimethyl-cyclopentanecarboxamide]
25 to 200	CNC(=O)[C@]1(C)CC[C@@H](Nc2ncc3c(Br)nn(-c4ccc5c(c4)CCNC5=O)c3n2)C1 [(1R,3R)-3-[[3-bromo-1-(1-oxo-3,4-dihydro-2H-isoquinolin-6-yl)pyrazolo[3,4-d]pyrimidin-6-yl]amino]-N,1-dimethyl-cyclopentanecarboxamide]
25 to 200	CNC(=O)[C@]1(C)CC[C@@H](Nc2ncc3c(Br)nn(-c4ccc(C#N)c(OCC(C)O)c4)c3n2)C1 (stereo partly drawn) [(1R,3R)-3-[[3-bromo-1-[4-cyano-3-(2-hydroxypropoxy)phenyl]pyrazolo [3,4-d]pyrimidin-6-yl]amino]-N,1-dimethyl-cyclopentanecarboxamide]
25 to 200	CNC(=O)[C@]1(C)CC[C@@H](Nc2ncc3c(Br)nn(-c4ccc(-c5ncco5)c(C(C)(C)C#N)c4)c3n2)C1 [(1R,3R)-3-[[3-bromo-1-[3-(1-cyano-1-methyl-ethyl)-4-oxazol-2-yl-phenyl]pyrazolo[3,4-d]pyrimidin-6-yl]amino]-N,1-dimethyl-cyclopentanecarboxamide]
25 to 200	CNC(=O)[C@]1(C)CC[C@@H](Nc2ncc3c(Br)nn(-c4ccc(-c5ncco5)c([C@H]5CCNC5)c4)c3n2)C1 [(1R,3R)-3-[[3-bromo-1-[4-oxazol-2-yl-3-[(3R)-pyrrolidin-3-yl]phenyl]pyrazolo[3,4-d]pyrimidin-6-yl]amino]-N,1-dimethyl-cyclopentane-carboxamide]
25 to 200	CNC(=O)[C@]1(C)CC[C@@H](Nc2ncc3c(Br)nn(-c4cc(C(C)(C)O)c5ncccc5c4)c3n2)C1 [(1R,3R)-3-[[3-bromo-1-[8-(1-hydroxy-1-methyl-ethyl)-6-quinolyl]pyrazolo[3,4-d]pyrimidin-6-yl]amino]-N,1-dimethyl-cyclopentanecarboxamide]
< 25	CNC(=O)[C@]1(C)CC[C@@H](Nc2ncc3c(Br)nn(-c4cc(OC)c5c(c4)OCC(=O)N5C)c3n2)C1 [(1R,3R)-3-[[3-bromo-1-(5-methoxy-4-methyl-3-oxo-1,4-benzoxazin-7-yl)pyrazolo[3,4-d]pyrimidin-6-yl]amino]-N,1-dimethyl-cyclopentanecarboxamide]

Second part, the molecule before the results:

SMILES	IC50 [nM]
Cc1nnc(-c2ccc(-n3nc(Br)c4cnc(N[C@@H]5CC[C@H](P(C)(C)=O)C5)nc43)cc2)s1 [3-bromo-N-[(1R,3S)-3-dimethylphosphoryl-cyclopentyl]-1-[4-(5-methyl-1,3,4-thiadiazol-2-yl)phenyl]pyrazolo[3,4-d]pyrimidin-6-amine]	25 to 200
Cc1nnc(-c2ccc(-n3nc(Br)c4cnc(N[C@@H]5CC[C@@H](C(=O)N6CCN(C)C(=O)C6)C5)nc43)cc2F)o1 [4-((1R,3R)-3-((3-bromo-1-(3-fluoro-4-(5-methyl-1,3,4-oxadiazol-2-yl)phenyl)-1H-pyrazolo[3,4-d]pyrimidin-6-yl)amino)cyclo-pentane-1-carbonyl)-1-methylpiperazin-2-one]	25 to 200
COC1CC(Nc2ncc3c(Br)nn(-c4cc(F)c5ncccc5c4)c3n2)C1 (stereo not shown) [3-bromo-1-(8-fluoro-6-quinolyl)-N-(3-methoxycyclobutyl)pyrazolo[3,4-d]pyrimidin-6-amine]	25 to 200
Cc1nnc(-c2ccc(-n3nc(Br)c4cnc(N[C@@H]5CC[C@]6(CCNC6=O)C5)nc43)cc2)s1	25 to 200
Cc1nnc(-c2ccc(-n3nc(Br)c4cnc(N[C@@H]5CC[C@@H](NC(=O)[C@@H]6CCCCN6)C5)nc43)cc2)s1	25 to 200
CS(=O)(=O)CCNC(=O)[C@@H]1CC[C@@H](Nc2ncc3c(Br)nn(-c4ccc5ncccc5c4)c3n2)C1 [(1R,3R)-3-((3-bromo-1-(quinolin-6-yl)-1H-pyrazolo[3,4-d]pyrimidin-6-yl)amino)-N-(2-(methylsulfonyl)ethyl)cyclopentane-1-carboxamide]	200 to 500
CNC(=O)[C@]1(CCOC)CC[C@@H](Nc2ncc3c(Br)nn(-c4ccc(-c5nnc(C)s5)c(CCC#N)c4)c3n2)C1 [(1R,3R)-3-[[3-bromo-1-[3-(2-cyano-ethyl)-4-(5-methyl-1,3,4-thiadiazol-2-yl)phenyl]pyrazolo[3,4-d]pyrimidin-6-yl]amino]-1-(2-methoxyethyl)-N-methyl-cyclopentanecarboxamide; 2,2,2-trifluoroacetic acid]	25 to 200
COC[C@H](C)NC(=O)[C@@H]1CCC[C@@H](Nc2ncc3c(Br)nn(-c4ccc5ncccc5c4)c3n2)C1 [(1R,3R)-3-((3-bromo-1-(quinolin-6-yl)-1H-pyrazolo[3,4-d]pyrimidin-6-yl)amino)-N-((S)-1-methoxypropan-2-yl)cyclohexane-1-carboxamide]	500 to 1000
CNC(=O)[C@]1(C)CC[C@@H](Nc2ncc3c(Br)nn(-c4ccc5c(c4)c(=O)n(C)c(=O)n5C)c3n2)C1	< 25
C[C@H]1C(=O)N(C)CCN1C(=O)[C@@H]1CC[C@@H](Nc2ncc3c(Br)nn(-c4cc(C#N)c5ncccc5c4)c3n2)C1 [6-(3-bromo-6-(((1R,3R)-3-((S)-2,4-dimethyl-3-oxopiperazine-1-carbonyl)cyclopentyl)amino)-1H-pyrazolo[3,4-d]pyrimidin-1-yl) quinoline-8-carbonitrile]	< 25
CC(C)N(CC(N)=O)C(=O)[C@@H]1CC[C@@H](Nc2ncc3c(Br)nn(-c4cc(F)c5ncccc5c4)c3n2)C1 [(1R,3R)-N-(2-amino-2-oxoethyl)-3-((3-bromo-1-(8-fluoroquinolin-6-yl)-1H-pyrazolo[3,4-d]pyrimidin-6-yl)amino)-N-isopropylcyclopentane-1-carboxamide]	25 to 200
O=C([C@@H]1CC[C@@H](Nc2ncc3c(Br)nn(-c4ccc5ncccc5c4)c3n2)C1)N1CCC(O)(CO)CC1 [((1R,3R)-3-((3-bromo-1-(quinolin-6-yl)-1H-pyrazolo[3,4-d]pyrimidin-6-yl)amino)cyclo-pentyl)(4-hydroxy-4-(hydroxymethyl)piperidin-1-yl)methanone]	25 to 200
Cc1nnc(-c2ccc(-n3nc(Br)c4cnc(N[C@@H]5CC[C@@H](C(=O)N6CCN(C)C(=O)C6)C5)nc43)cc2)o1 [4-((1R,3R)-3-((3-bromo-1-(4-(5-methyl-1,3,4-oxadiazol-2-yl)phenyl)-1H-pyrazolo[3,4-d]pyrimidin-6-yl)amino)cyclopentane-1-carbonyl)-1-methylpiperazin-2-one]	25 to 200
N#Cc1cc(-n2nc(Br)c3cnc(N[C@@H]4CC[C@@H](C(=O)NCC5CC5)C4)nc32)cc2cccnc12 [(1R,3R)-3-((3-bromo-1-(8-cyanoquinolin-6-yl)-1H-pyrazolo[3,4-d]pyrimidin-6-yl)amino)-N-(cyclopropylmethyl)cyclo-pentane-1-carboxamide]	25 to 200
O[C@@H]1CCC[C@@H]1Nc1ncc2c(Br)nn(-c3cc(F)c4ncccc4c3)c2n1 [(1R,2S)-2-[[3-bromo-1-(8-fluoro-6-quinolyl)pyrazolo[3,4-d]pyrimidin-6-yl]amino]cyclopentanol]	25 to 200
